Data on seven molecules can be found in ChEMBL document CHEMBL1128863, “6-Imino-1,3-oxazines: a new class of hepatoprotectants” (Bioorg Med Chem Lett, 1995).

Data set [1] addresses Alanine aminotransferase 1 (Rattus norvegicus) (UniProt P25409). Put plainly: (§1) Hepatoprotective activity against glutamate pyruvate transaminase (GTP) for thioacetamide-induced toxicity in rats at 6 mg/kg dose for 7 days by ip administration. On the set-up: dose 6 mg/kg. The format is functional, organism-based.
Data set [2] can be described thus: Hepatoprotective activity against glutamate oxaloacetate transaminase (GOT) for thioacetamide-induced toxicity in rats at 6 mg/kg dose for 7 days by ip administration. The format is functional.
The target of data set [3] is Alkaline phosphatase, tissue-nonspecific isozyme (Rattus norvegicus) (UniProt P08289). Put plainly: (§2) Hepatoprotective activity against alkaline phosphatase (ALP) for thioacetamide-induced toxicity in rats at 6 mg/kg dose for 7 days by ip administration. On the set-up: dose 6 mg/kg. The format is functional, organism-based.
Data set [4] concerns Rattus norvegicus. Put plainly: Hepatoprotective activity against bilirubin for thioacetamide-induced toxicity in rats at 6 mg/kg dose for 7 days by ip administration. The format is functional.
The target in data set [5] is T1, Alanine aminotransferase 1 (Rattus norvegicus) (UniProt P25409).
T1 sequence (whole entry): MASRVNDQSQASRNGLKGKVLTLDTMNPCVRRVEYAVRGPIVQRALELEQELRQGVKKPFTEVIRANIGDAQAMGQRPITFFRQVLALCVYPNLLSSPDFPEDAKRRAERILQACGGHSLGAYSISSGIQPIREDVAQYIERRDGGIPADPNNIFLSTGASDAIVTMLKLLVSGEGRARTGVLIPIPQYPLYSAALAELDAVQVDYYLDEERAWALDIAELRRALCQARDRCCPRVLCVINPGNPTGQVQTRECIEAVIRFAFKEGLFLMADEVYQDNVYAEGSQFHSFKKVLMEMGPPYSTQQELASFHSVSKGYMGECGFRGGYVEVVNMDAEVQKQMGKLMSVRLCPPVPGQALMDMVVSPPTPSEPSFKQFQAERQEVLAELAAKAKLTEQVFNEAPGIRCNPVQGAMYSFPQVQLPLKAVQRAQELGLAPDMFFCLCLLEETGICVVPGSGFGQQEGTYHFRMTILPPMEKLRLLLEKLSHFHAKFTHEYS
The description is as §1. The format is functional, organism-based. On the set-up: dose 6 mg/kg. This is another data set of the same source.

Data set [6] has as its target T2, Alkaline phosphatase, tissue-nonspecific isozyme (Rattus norvegicus) (UniProt P08289).
T2 sequence (whole entry): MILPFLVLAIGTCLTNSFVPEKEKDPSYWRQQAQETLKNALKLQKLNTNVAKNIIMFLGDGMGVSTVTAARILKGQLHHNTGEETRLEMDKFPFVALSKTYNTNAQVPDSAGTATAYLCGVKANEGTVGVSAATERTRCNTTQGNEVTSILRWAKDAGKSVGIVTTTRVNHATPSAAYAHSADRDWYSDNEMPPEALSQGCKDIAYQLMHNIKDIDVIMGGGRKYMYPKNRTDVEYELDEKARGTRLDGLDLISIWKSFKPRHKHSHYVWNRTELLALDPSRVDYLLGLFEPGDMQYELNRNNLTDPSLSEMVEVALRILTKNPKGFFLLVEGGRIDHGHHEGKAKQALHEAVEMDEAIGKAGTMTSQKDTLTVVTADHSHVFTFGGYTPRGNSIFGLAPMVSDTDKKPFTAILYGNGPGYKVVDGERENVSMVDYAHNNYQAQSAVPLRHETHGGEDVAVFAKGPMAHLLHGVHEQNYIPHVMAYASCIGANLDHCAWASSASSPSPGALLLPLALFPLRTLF
Described as §2. The format is functional, organism-based. On the set-up: dose 6 mg/kg. This is another data set of the same source.

Data set [7] in a line: Lethal dose administered perorally in rats in various models of liver injuries. The format is toxicity. As to conditions: rat, in vivo, po.
Data set [8] relates to Rattus norvegicus. Put plainly: Effective dose administered perorally in rats in various models of liver injuries. The format is functional.

Take SILYMARIN: the Protection in data set [1] stood at 47.2%; in data set [2] it was 50.1%; in data set [3], 47%; in the data set with Rattus norvegicus [4], 61%.
For `CCOC(=O)c1c(SC)nc(C)oc1=N`, the Protection in data set [5] worked out at 29%; in data set [2] (route intraperitoneal), 26%; in data set [6], 36%; in the data set with Rattus norvegicus [4] (route intraperitoneal), 11%.
The matching figures for `CSc1nc(-c2ccccc2)oc(=N)c1C#N`: 19%, 26%, 30% and 19%.
With `N#Cc1c(N)oc(-c2ccccc2)n/c1=N\N`, the Protection in data set [5] amounted to 19%; in data set [2] (route intraperitoneal), 17%; in data set [6], 12%; in the data set with Rattus norvegicus [4] (route intraperitoneal) it was 0%.
As a reminder, the LD50 is the dose expected to kill half of the subjects tested. Higher therefore signals lower toxicity. Molecule `COc1ccn(C)c(=O)c1C#N` [RICININE] registered an LD50 in data set [7] of 80 mg/kg. The same molecule returned an ED in the data set on Rattus norvegicus [8] of 6 mg/kg.
`CCOC(=O)c1c(SC)nc(C(F)(F)F)oc1=N`: the Protection was 54% in data set [5], 66% in data set [2] (route intraperitoneal), 28% in data set [6] and 14% in the data set on Rattus norvegicus [4] (route intraperitoneal).
The matching figures for `CCOC(=O)c1c(SC)nc(-c2ccccc2)oc1=N`: 39%, 33%, 41% and 33%.
